The target in the assay is Estrogen receptor beta (Homo sapiens, UniProt Q92731). As to the kind of experiment: Inhibition of human estrogen receptor 2 using tritiated estradiol incubated for 3 hr.
Estrogen receptor beta, sequence (Q92731 whole entry): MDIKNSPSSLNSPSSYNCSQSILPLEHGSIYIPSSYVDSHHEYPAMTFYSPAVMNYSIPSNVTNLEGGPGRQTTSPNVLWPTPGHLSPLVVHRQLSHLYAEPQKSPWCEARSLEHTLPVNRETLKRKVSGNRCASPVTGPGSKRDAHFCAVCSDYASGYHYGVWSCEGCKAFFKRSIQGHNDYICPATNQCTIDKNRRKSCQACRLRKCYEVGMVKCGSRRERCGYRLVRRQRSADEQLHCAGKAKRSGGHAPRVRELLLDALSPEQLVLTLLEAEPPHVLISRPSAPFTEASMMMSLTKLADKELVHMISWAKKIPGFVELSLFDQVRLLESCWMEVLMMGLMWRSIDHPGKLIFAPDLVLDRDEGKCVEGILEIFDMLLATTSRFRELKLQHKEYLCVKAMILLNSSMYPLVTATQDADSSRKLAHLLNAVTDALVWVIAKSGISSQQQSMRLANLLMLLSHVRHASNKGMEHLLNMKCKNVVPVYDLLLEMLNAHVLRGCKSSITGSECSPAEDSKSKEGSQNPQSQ
As usually defined, the IC50 is the concentration that inhibits the measured activity by half. A high value points to a need for much substance. Compound `C[C@@H]1CCN([C@@H](C)COc2ccc([C@@H]3Oc4ccc(O)cc4S[C@@H]3c3cccc(O)c3)cc2)C1` showed an IC50 of 69 nM.

`C[C@@H]1CCN([C@@H](C)COc2ccc([C@@H]3Oc4ccc(O)c(F)c4S[C@@H]3c3ccc(O)cc3)cc2)C1` gave an IC50 of 5.3 nM.

The compound `C[C@@H]1CCN([C@@H](C)COc2ccc([C@@H]3Oc4ccc(O)c(F)c4S[C@@H]3c3cccc(O)c3)cc2)C1` showed a half-maximal inhibitory concentration (IC50) of 9.1 nM.

Source of the values: ChEMBL document CHEMBL1142800, “Estrogen receptor ligands. Part 13: Dihydrobenzoxathiin SERAMs with an optimized antagonist side chain” (Bioorg Med Chem Lett, 2005).
